# Measured values taken from patent publication US7053043B1, “Pharmaceutical compositions comprising synthetic peptide copolymers and methods for preventing and treating GVHD and HVGD” (Yeda Research and Development Co.Ltd., priority 1999, dated 2006).
# Assays:
# [1] = test system: skin graft rejection; assay: Skin graft transplantation model for HVGD; type: in vivo, mice; details: B10.D2 → BALB/c, FK506 300 μg/day ip, 7 injections from day −2
# Procedure: Recipient mice were dorsally transplanted with circular pieces of donor skin. Mice were inspected daily. Grafts were considered rejected when no viable donor epidermis remained. The results are expressed in mean survival time (MST). P values were obtained by analysis of variance (ANOVA).
# […] The first Cop 1 treatment on day −7 was injected sc in ICFA as a depot dose. Control mice were treated daily with PBS alone and PBS with ICFA on day −7 before transplantation.
# Grafts were inspected daily. Rejection was considered positive when no viable donor epidermis remained. […]
# [2] = test system: function of transplanted thyroids; assay: Thyroid graft assay for HVGD (125I absorption of thyroid transplanted in kidney capsule); type: in vivo, mice; details: B10.D2 → BALB/c, FK506 300 μg
# Procedure: In this transplantation model for HVGD, thyroid glands from donor mice were transplanted in the kidney's capsules of recipient mice. One week later the transplanted mice were injected with ^125I, and the radioactivity of each kidney (the recipient or the untransplanted kidney) was measured after 20 hours. Δcpm was calculated by subtracting the ^125I absorbance of the untransplanted kidneys from the ^125I absorbance of the recipient kidneys in the same treatment. The mean function index (MFI) for treatment was calculated by dividing the mean Δcpm for the tested (Copolymer 1) treatment by the mean Δcpm for the PBS treatment. P values were obtained by the t test. This assay indicates objectively and quantitatively not only the graft survival, but also the function (iodine absorbance) of the transplanted thyroid tissue (Isakov et al., 1979).
# The transplanted mice were treated daily with Copolymer 1 600 μg/day (300 μg ip+300 μg sc) in PBS solution, starting 7 days before transplantation. The first Cop 1 treatment on day −7 was injected sc in ICFA as a depot dose. Control mice were treated daily with PBS alone and PBS with ICFA on day −7 before transplantation.
# To test the effect of Copolymer 1 treatment on the function of transplanted thyroids in the B10.D2→BALB/c model, thyroid glands from donors B10.D2 were transplanted in the kidney's capsules of BALB/c mice. After one week the transplanted mice were injected with ^125I, and the radioactivity of each kidney was measured 20 hours later. cpm was calculated by subtracting the ^125I absorbance of the untransplanted kidneys from the ^125I absorbance of the recipient kidneys in the same treatment. The mean function index (MFI) for each treatment was calculated by dividing the mean ^125I absorbance of (transplanted kidney-untransplanted kidney) in the tested treatment by the mean ^125I absorbance of (transplanted kidney-untransplanted kidney) in the PBS treatment, as follows: […]
# [3] = test system: T cell proliferation in MHC-disparate mixed lymphocyte cultures; assay: Mixed lymphocyte cultures across major histocompatibility barriers, six MHC-disparate strain combinations; type: cell-based, mice; details: 10–100 μg/well, all concentrations tested
# Procedure: (§1) Responder cells for MLR reactions across major histocompatibility barriers were harvested from spleen of non-immunized mice while responder cells for MLR across minor histocompatibility barriers were harvested from mice which were preimmunized with irradiated (30 Gy) 50×10^6 stimulator spleen cells 21 days before. Responder cells (5×10^5 spleen cells per well) were tested for their proliferative response by plating with different amounts (2.5 to 10×10^5) of irradiated stimulator cells, in presence or absence of various peptide inhibitors (10–100 μg per well). Cultures were set up in 200 μl media containing 10% FCS in flat-bottom microtiter plates. After 4 days of incubation, cultures were pulsed with 1 μCi of [^3H]thymidine for an additional 16 hours. Results are represented as mean counts per minute (cpm) thymidine incorporation from triplicate cultures.
# [4] = test system: GVHD in B10.D2 → BALB/c recipients; assay: Murine lethal GVHD model after bone marrow transplantation, B10.D2/nSnJ→BALB/c; type: in vivo, mice; details: for overall incidence of GVHD: 600 μg per injection (ip + sc), Cop 1 Batch I
# Procedure: The murine GVHD model of B10.D2/nSnJ→BALB/c mice (both H-2^d) across minor histocompatibility barriers, was selected since it is similar to the MHC matched bone marrow transplantation in humans. For the induction of GVHD, 10×10^6 bone marrow and 100×10^6 spleen cells from B10.D2 mice were injected into lethally irradiated (8.0 Gy) BALB/c recipients. […] Recipient mice were 12–13 weeks at the time of transplantation.
# Based on previous studies with Cop 1 in EAE (Sela et al., 1990; Teitelbaum et al., 1971; Teitelbaum et al., 1973) and class II-binding competitor peptides in GVHD (Schlegel et al., 1994), the dosage of 600 μg per injection was selected, half of which was administered intraperitoneally (ip), whereas the other half was given subcutaneously (sc). Treatment of BALB/c recipient mice was initiated on day −1, followed by daily injections for the first five weeks starting on day 0 after transplantation. The frequency of injections was tapered to three times per week for the subsequent two weeks and to two times per week for another two weeks and then discontinued. Throughout the experiment, copolymers and controls were administered once a week with incomplete Freund's adjuvant (IFA) ip as a depot dose (Schlegel et al., 1994). Treatment was discontinued 9 weeks after transplantation.
# Mice were followed up daily for 140 days after bone marrow transplantation for signs of GVHD. Disease severity was assessed by mortality, loss of body weight, and by the extent of macroscopic skin involvement scored on a cumulative scale (from min O— max 8): head 1, neck 1, back (1/3, 2/3, 3/3) 1–3, front (1/3, 2/3, 3/3) 1–3. Skin biopsies were examined as previously described (Schlegel et al., 1994).
# (ii) Effect of Copolymer 1 Treatment on the Incidence, Onset and Severity of GVHD. […] For the first five weeks after transplant mice were injected daily as outlined in Materials and Methods, followed by a tapering schedule over an additional four weeks.
# (iii) Effect of Copolymer 1 treatment on survival. […]
# [5] = test system: proliferation of B10.PL (H-2u) responder cells to PL/J stimulator cells; assay: Mixed lymphocyte reaction (MLR) across minor histocompatibility barriers; type: cell-based, mice; details: 20 μg/well, Cop 1 Batch I, 1:1 ratio of responder to stimulator cells
# Procedure: as §1
# (§2) To investigate the feasibility of inhibition of MLR by Copolymer 1, an MLR system was developed in which Copolymer 1 was tested for its ability to inhibit the proliferation of B10.PL (H-2^u) responder cells to stimulator cells of either the same (PL/J) or different (BALB/c) H-2 haplotype. For comparison, the inhibitory MBP Ac 1-11[4A], MBP 35-47, a combination of Ac 1-1[4A]+MBP 35-47, MBP 89-101 and KM-core peptides, described in Schlegel et al. (1994), were used in the MLR experiments.
# (§3) The inhibition obtained by Copolymer 1 was similar (in response to minor histocompatibility antigen) or even higher (in response to major histocompatibility antigen) than the inhibition obtained with the combination of the two synthetic peptides Ac 1-11[4A] and MBP 35-47, which specifically bind to the class II molecules I-A^u and the I-E^u, respectively. The molar efficiency of Copolymer 1 of M.W. 6000 is even higher since the molecular weight of the synthetic peptides is 4–5 fold lower.
# [6] = test system: proliferation of B10.PL (H-2u) responder cells to BALB/c stimulator cells; assay: Mixed lymphocyte reaction (MLR) across major histocompatibility barriers, B10.PL vs BALB/c; type: cell-based, mice; details: 20 μg/well, Cop 1 Batch I, 1:1 ratio of responder to stimulator cells
# Procedure: as §1, §2, §3
compound,measurement,setting,value
C=CC[C@@H]1/C=C(\C)C[C@H](C)C[C@H](OC)[C@H]2O[C@@](O)(C(=O)C(=O)N3CCCC[C@H]3C(=O)O[C@H](/C(C)=C/[C@@H]3CC[C@@H](O)[C@H](OC)C3)[C@H](C)[C@@H](O)CC1=O)[C@H](C)C[C@@H]2OC [FK506],MST ± SD (Mean Survival Time of skin graft),[1],21.2 ± 4.3 days
same,MST ± SD (Mean Survival Time of skin graft),[1]; listed as FK 506,21.2 days
same,"Mean 125I Absorption, Transplanted Kidney (cpm)",[2],3117 cpm
same,"Mean 125I Absorption, Untransplanted Kidney (cpm)",[2],693 cpm
same,cpm (transplanted minus untransplanted kidney),[2],2424 cpm
same,MFI (mean function index),[2]; folds over PBS treatment,3.1
Hen egg-white lysozyme [HEL],inhibitory effect on the MLC,[3],no or only minimal inhibitory effect
same,long-term survival from lethal graft-versus-host disease,[4]; 600 μg per injection,did not improve long-term survival
same,overall incidence of GVHD,[4]; day 30 after transplant,100%
same,overall incidence of GVHD,[4]; day 70 after transplant,100%
same,median onset of GVHD,"[4]; days after transplant, 600 μg per injection",22 days
"KM-core: KMKMVAAHAKMKM (SEQ ID NO:3), based on the antigenic core sequence of ovalbumin 323–339 (KMKMVHAAHAKMKM)",inhibition of MLR,[5],did not induce any significant effect
same,inhibition of MLR,[6],did not induce any significant effect
MBP 89-101: peptide VHFFKNIVTPRTP (SEQ ID NO:4) of myelin basic protein,inhibition of MLR,[5],did not induce any significant effect
same,inhibition of MLR,[6],did not induce any significant effect
